According to ChEMBL document CHEMBL3124933, “Optimization of brain penetrant 11β-hydroxysteroid dehydrogenase type I inhibitors and in vivo testing in diet-induced obese mice” (J Med Chem, 2014):

Key:
[1] = Apparent permeability from apical to basolateral side in MDCK cells; format: ADME, cell-based, Canis lupus familiaris; conditions: dog
[2] = Oral bioavailability in Han Wistar rat; format: ADME, organism-based; conditions: in vivo
physchem = conditions: buffer, pH 7.4
[3] = Clearance in iv dosed Han Wistar rat; format: ADME, organism-based; conditions: in vivo
[4] = Ratio of total drug level in brain to blood in Han Wistar rat at 30 mg/kg, po measured at 1 hr by LC-MS/MS analysis; format: ADME, organism-based; design: dose 30 mg/kg, route oral; conditions: read-out: BBR
[5] = Clearance in C57B6 mouse at 3.5 umol/kg, iv; format: ADME, organism-based; conditions: in vivo
[6] = Ratio of free drug level in brain to blood in diet-induced obese C57B6 mouse model at 4 to 40 mg/kg/day administered through diet for 21 days measured on day 24; format: ADME, organism-based; conditions: po
[7] = Volume of distribution at steady state in C57B6 mouse at 3.5 umol/kg, iv; format: ADME, organism-based; conditions: in vivo, read-out: Vdss
[8] = Oral bioavailability in Han Wistar rat at 7.4 umol/kg; format: ADME, organism-based; conditions: in vivo
[9] = Clearance in Han Wistar rat at 5.2 umol/kg, iv; format: ADME, organism-based; conditions: in vivo
[10] = AUC in Han Wistar rat whole blood at 7.4 umol/kg, po
[11] = Ratio of free drug level in brain to blood in Han Wistar rat at 30 mg/kg, po measured at 1 hr by LC-MS/MS analysis; format: ADME, organism-based; design: dose 30 mg/kg, route oral
[12] = Oral bioavailability in C57B6 mouse at 17.6 umol/kg; format: ADME, organism-based; conditions: in vivo
[13] = AUC in C57B6 mouse at 17.6 umol/kg, po; format: ADME, organism-based, Plasma; conditions: whole blood
[14] = Volume of distribution at steady state in Han Wistar rat at 5.2 umol/kg, iv; format: ADME, organism-based; conditions: in vivo, read-out: Vdss
[15] = AUC in C57B6 mouse at 14.3 umol/kg, po; format: ADME, organism-based, Plasma; conditions: whole blood
[16] = Clearance in Han Wistar rat at 3.1 umol/kg, iv; format: ADME, organism-based; conditions: in vivo
[17] = AUC in Han Wistar rat at 12.3 umol/kg, po; format: ADME, organism-based, Plasma; conditions: whole blood
[18] = Oral bioavailability in Han Wistar rat at 12.3 umol/kg; format: ADME, organism-based; conditions: in vivo
[19] = Volume of distribution at steady state in Han Wistar rat at 3.1 umol/kg, iv; format: ADME, organism-based; conditions: in vivo, read-out: Vdss
[20] = Clearance in C57B6 mouse at 4 umol/kg, iv; format: ADME, organism-based; conditions: in vivo
[21] = Oral bioavailability in C57B6 mouse at 14.3 umol/kg; format: ADME, organism-based; conditions: in vivo
[22] = Ratio of free drug level in brain to blood in diet-induced obese C57B6 mouse model at 20 mg/kg administered through diet for 21 days measured on day 24; format: ADME, organism-based; design: dose 20 mg/kg; conditions: po
[23] = Volume of distribution at steady state in C57B6 mouse at 4 umol/kg, iv; format: ADME, organism-based; conditions: in vivo, read-out: Vdss

Structure (SMILES) | bioavailability [2] | logD (physchem) | Kp at 1 h [4] | also measured
C[C@@H]1CN(c2ncc(C(=O)NC3C4CC5CC3CC(O)(C5)C4)c(C3CCCC3)n2)C[C@H](C)O1 (stereo partly specified) | 70% | 3.6 |  | Papp A→B [1]: 20 ×10⁻⁶ cm/s
CCc1nc([C@H]2CCCO2)c(C(=O)N[C@H]2C3CC4CC2C[C@](O)(C4)C3)s1 |  | 2.4 |  | 
COC[C@H](C)Oc1nc([C@H]2CCCO2)c(C(=O)NC2C3CC4CC2CC(O)(C4)C3)s1 (stereo partly specified) | 16% | 2.8 | 0.9 | clearance [3]: 13 mL/min/kg
CNc1nc([C@H]2CCCO2)c(C(=O)N[C@H]2C3CC4CC2C[C@](O)(C4)C3)s1 |  | 2.1 |  | 
Nc1nc([C@H]2CCCO2)c(C(=O)N[C@H]2C3CC4CC2C[C@](O)(C4)C3)s1 |  | 1.7 |  | 
COCCc1nc([C@H]2CCCO2)c(C(=O)N[C@H]2C3CC4CC2C[C@](O)(C4)C3)s1 |  | 1.8 |  | 
Cc1nc([C@@H]2CCCO2)c(C(=O)N[C@H]2C3CC4CC2C[C@](O)(C4)C3)s1 |  | 1.8 |  | 
CC(C)Oc1nc(C2CC2)c(C(=O)N[C@H]2C3CC4CC2C[C@](O)(C4)C3)s1 |  | 3.4 |  | 
COCc1nc([C@H]2CCCO2)c(C(=O)N[C@H]2C3CC4CC2C[C@](O)(C4)C3)s1 |  | 1.9 |  | 
CN(C)c1nc([C@H]2CCCO2)c(C(=O)N[C@H]2C3CC4CC2C[C@](O)(C4)C3)s1 |  | 2.7 |  | 
CCCSc1nc(C)sc1C(=O)N[C@H]1C2CC3CC1C[C@](O)(C3)C2 |  | 3.1 |  | 
Cc1nc(OCC(F)(F)F)c(C(=O)N[C@H]2C3CC4CC2C[C@](O)(C4)C3)s1 |  | 3.1 |  | 
Cc1nc(OC2CCC2)c(C(=O)NC2C3CC4CC2CC(O)(C4)C3)s1 (stereo unspecified) |  | 3.2 |  | 
O=C(NC1C2CC3CC1CC(O)(C3)C2)c1cnc(N[C@H]2CCOC2)nc1C1CCCC1 (stereo partly specified) | 64% |  |  | Papp A→B [1]: 3 ×10⁻⁶ cm/s
CS(=O)(=O)Cc1nc([C@H]2CCCO2)c(C(=O)NC2C3CC4CC2CC(O)(C4)C3)s1 (stereo partly specified) | 65% | 0.4 | < 0.05 | clearance [3]: 17 mL/min/kg
Cc1nc(OC2COC2)c(C(=O)N[C@H]2C3CC4CC2C[C@](O)(C4)C3)s1 |  | 1.5 |  | 
COc1nc([C@H]2CCCO2)c(C(=O)N[C@H]2C3CC4CC2C[C@](O)(C4)C3)s1 | 40% | 2.3 | 1.1 | clearance [3]: 21 mL/min/kg
COC[C@@H](C)Oc1nc(C2CC2)c(C(=O)N[C@H]2C3CC4CC2C[C@](O)(C4)C3)s1 |  | 2.6 |  | 
COc1nc(C2CC2)c(C(=O)N[C@H]2C3CC4CC2C[C@](O)(C4)C3)s1 | 45% | 2.6 | 1.8 | clearance [3]: 15 mL/min/kg
O=C(N[C@H]1C2CC3CC1C[C@](O)(C3)C2)c1sc(OC2CCOCC2)nc1[C@H]1CCCO1 |  | 2.6 | 1.1 | clearance [5]: 26 mL/min/kg; Kp uu at 504 h [6]: 0.5; Vd [7]: 1.7 L/kg; bioavailability [8]: 83%; clearance [9]: 34 mL/min/kg; AUC [10]: 3.9 µM·h; Kp uu at 1 h [11]: 0.9; bioavailability [12]: 139%; AUC [13]: 20.6 µM·h; Vd [14]: 1 L/kg
COCCOc1nc([C@H]2CCCO2)c(C(=O)NC2C3CC4CC2CC(O)(C4)C3)s1 (stereo partly specified) | 24% | 2.1 | 0.8 | clearance [3]: 8 mL/min/kg

Structure (SMILES) | bioavailability [2] | logD (physchem) | Kp at 1 h [4] | also measured
Cc1nc(OC(C)C)c(C(=O)N[C@H]2C3CC4CC2C[C@](O)(C4)C3)s1 |  | 3 |  | 
COCCOc1nc(C2CC2)c(C(=O)N[C@H]2C3CC4CC2C[C@](O)(C4)C3)s1 | 23% |  | 1.2 | clearance [3]: 27 mL/min/kg
CCOc1nc(C)sc1C(=O)N[C@H]1C2CC3CC1C[C@](O)(C3)C2 |  | 2.6 |  | 
Cc1nc(C(F)(F)F)c(C(=O)N[C@H]2C3CC4CC2C[C@](O)(C4)C3)s1 |  | 1.5 |  | 
COC[C@H](C)Oc1nc(C2CC2)c(C(=O)N[C@H]2C3CC4CC2C[C@](O)(C4)C3)s1 |  | 2.8 |  | 
O=C(N[C@H]1C2CC3CC1C[C@](O)(C3)C2)c1sc(O[C@@H]2CCCO2)nc1C1CC1 |  | 2.4 |  | 
N#CC1(COc2nc(C3CC3)c(C(=O)N[C@H]3C4CC5CC3C[C@](O)(C5)C4)s2)CC1 |  | 2.6 | 0.4 | AUC [15]: 12 µM·h; clearance [16]: 16 mL/min/kg; AUC [17]: 7.9 µM·h; bioavailability [18]: 79%; Vd [19]: 0.6 L/kg; clearance [20]: 18 mL/min/kg; Kp uu at 1 h [11]: 0.4; bioavailability [21]: 73%; Kp uu at 504 h [22]: 0.2; Vd [23]: 1 L/kg
O=C(NC1C2CC3CC1CC(O)(C3)C2)c1scnc1[C@H]1CCCO1 (stereo partly specified) | 0% | 1.6 |  | clearance [3]: 52 mL/min/kg
Cc1nc([C@H]2CCCO2)c(C(=O)N[C@H]2C3CC4CC2C[C@](O)(C4)C3)s1 | 11% | 1.8 | 1.5 | clearance [3]: 17 mL/min/kg
O=C(N[C@H]1C2CC3CC1C[C@](O)(C3)C2)c1cncs1 |  | 0.8 |  | 
O=C(N[C@H]1C2CC3CC1C[C@](O)(C3)C2)c1sc(OCC2CC2)nc1C1CC1 |  | 3.6 |  | 
O=C(N[C@H]1C2CC3CC1C[C@](O)(C3)C2)c1sc(OC2CCOCC2)nc1C1CC1 | 53% | 2.7 | 1.2 | clearance [3]: 21 mL/min/kg
COc1c(C(=O)NC2C3CC4CC2CC(O)(C4)C3)cnn1C (stereo unspecified) | 27% | 0.4 | 0.1 | 
C[C@@H]1CN(c2ncc(C(=O)NC3C4CC5CC3CC(O)(C5)C4)c([C@H]3CCCO3)n2)C[C@H](C)O1 (stereo partly specified) | 35% | 2.3 | 0.3 | Papp A→B [1]: 23 ×10⁻⁶ cm/s
CCOc1nc(C2CC2)c(C(=O)N[C@H]2C3CC4CC2C[C@](O)(C4)C3)s1 |  | 2.9 |  | 
N#CC1CC(Oc2nc([C@H]3CCCO3)c(C(=O)NC3C4CC5CC3CC(O)(C5)C4)s2)C1 (stereo partly specified) |  | 2.4 |  | 
COc1nc(C)sc1C(=O)N[C@H]1C2CC3CC1C[C@](O)(C3)C2 | 23% | 2 | 1.2 | clearance [3]: 22 mL/min/kg
Cc1nc(C)c(C(=O)N[C@H]2C3CC4CC2C[C@](O)(C4)C3)s1 |  | 1.3 |  | 
COc1ncsc1C(=O)NC1C2CC3CC1CC(O)(C3)C2 (stereo unspecified) |  | 1.7 |  | 
Cc1nc(C2CC2)c(C(=O)N[C@H]2C3CC4CC2C[C@](O)(C4)C3)s1 | 12% | 1.9 | 1.6 | clearance [3]: 14 mL/min/kg
O=C(N[C@H]1C2CC3CC1C[C@](O)(C3)C2)c1sc(OCCO)nc1C1CC1 | 25% | 1.6 | 0.2 | clearance [3]: 5 mL/min/kg
